Measurements as given in ChEMBL document CHEMBL6134821, “Design, synthesis, and biological evaluation of novel BTK-targeting proteolysis targeting chimeras (PROTACs) with enhanced pharmacokinetic properties” (Eur J Med Chem, 2025).
Calls of active or inactive are those of the source. No cut-off for these calls is given here.

Key:
[1] = molecular target: T1, Protein cereblon/Tyrosine-protein kinase BTK (Homo sapiens, UniProt Q06187+Q96SW2); experiment: PROTAC activity at CRBN/BTK in human JeKo-1 cells assessed as BTK degradation at 10 nM incubated for 24 hrs by Western blot analysis relative to control; assay type: cell-based
Target sequence in this assay (Q06187 2-659 limits assumed): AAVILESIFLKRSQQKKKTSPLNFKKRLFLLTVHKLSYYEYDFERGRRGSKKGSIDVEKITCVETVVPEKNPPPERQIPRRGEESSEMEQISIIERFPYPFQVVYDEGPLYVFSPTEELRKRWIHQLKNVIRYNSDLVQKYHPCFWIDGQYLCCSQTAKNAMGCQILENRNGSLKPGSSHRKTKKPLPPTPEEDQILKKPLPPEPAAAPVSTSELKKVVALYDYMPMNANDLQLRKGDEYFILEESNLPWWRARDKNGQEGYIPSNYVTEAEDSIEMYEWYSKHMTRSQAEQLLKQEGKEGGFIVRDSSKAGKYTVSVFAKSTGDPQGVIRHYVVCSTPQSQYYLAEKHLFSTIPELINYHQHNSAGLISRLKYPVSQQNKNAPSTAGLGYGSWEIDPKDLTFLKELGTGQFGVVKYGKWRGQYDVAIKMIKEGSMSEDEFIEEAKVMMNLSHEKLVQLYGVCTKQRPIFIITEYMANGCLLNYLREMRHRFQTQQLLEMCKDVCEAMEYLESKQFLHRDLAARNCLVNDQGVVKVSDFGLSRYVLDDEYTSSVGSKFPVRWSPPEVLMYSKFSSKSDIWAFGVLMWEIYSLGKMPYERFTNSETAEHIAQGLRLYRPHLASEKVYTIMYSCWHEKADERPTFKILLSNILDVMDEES
Target sequence in this assay (Q96SW2 whole entry partner): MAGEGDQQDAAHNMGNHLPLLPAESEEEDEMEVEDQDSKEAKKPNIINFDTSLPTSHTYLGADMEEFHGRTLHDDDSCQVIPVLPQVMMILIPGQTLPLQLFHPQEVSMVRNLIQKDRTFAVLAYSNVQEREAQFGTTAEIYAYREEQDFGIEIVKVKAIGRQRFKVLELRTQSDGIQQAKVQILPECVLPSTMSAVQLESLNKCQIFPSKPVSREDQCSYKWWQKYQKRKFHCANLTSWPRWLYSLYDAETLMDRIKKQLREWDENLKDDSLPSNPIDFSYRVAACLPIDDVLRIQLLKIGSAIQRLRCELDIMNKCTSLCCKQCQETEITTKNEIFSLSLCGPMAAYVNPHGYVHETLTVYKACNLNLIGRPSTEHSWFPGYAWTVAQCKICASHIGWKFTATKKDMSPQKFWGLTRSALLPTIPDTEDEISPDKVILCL

[2] = molecular target: T1, Protein cereblon/Tyrosine-protein kinase BTK; experiment: PROTAC activity at CRBN/BTK in human JeKo-1 cells assessed as BTK degradation at 100 nM incubated for 24 hrs by Western blot analysis relative to control; assay type: cell-based
Target sequence in this assay (Q06187 2-659 limits assumed): as the sequence (Q06187 2-659 limits assumed) above
Target sequence in this assay (Q96SW2 whole entry partner): as the sequence (Q96SW2 whole entry partner) above

[3] = molecular target: T1, Protein cereblon/Tyrosine-protein kinase BTK; experiment: PROTAC activity at CRBN/BTK in human JeKo-1 cells assessed as BTK degradation at 30 nM incubated for 24 hrs by Western blot analysis relative to control; assay type: cell-based
Target sequence in this assay (Q06187 2-659 limits assumed): as the sequence (Q06187 2-659 limits assumed) above
Target sequence in this assay (Q96SW2 whole entry partner): as the sequence (Q96SW2 whole entry partner) above

[4] = Cytotoxicity against human TMD8 cells harboring wild-type BTK assessed as inhibition of cell viability incubated for 5 days by CCK8 assay; assay type: functional, cell-based; settings: TMD8, 120 h
[5] = Cytotoxicity against human TMD8 cells harboring BTK C481S mutant assessed as inhibition of cell viability incubated for 5 days by CCK8 assay; assay type: functional, cell-based; settings: TMD8, 120 h
[6] = molecular target: T1, Protein cereblon/Tyrosine-protein kinase BTK; experiment: PROTAC activity at CRBN/BTK in human JeKo-1 cells assessed as BTK degradation up to 100 nM incubated for 24 hrs by Western blot analysis; assay type: cell-based
Target sequence in this assay (Q06187 2-659 limits assumed): as the sequence (Q06187 2-659 limits assumed) above
Target sequence in this assay (Q96SW2 whole entry partner): as the sequence (Q96SW2 whole entry partner) above

[7] = Microsomal stability in human liver microsomes assessed as compound remaining measured up to 60 mins in presence of NADPH by LC-MS/MS analysis; assay type: ADME, Microsome; settings: read-out: Stability
[8] = molecular target: T1, Protein cereblon/Tyrosine-protein kinase BTK; experiment: PROTAC activity at CRBN/BTK in human JeKo-1 cells assessed as BTK degradation incubated for 24 hrs by Western blot analysis; assay type: cell-based
Target sequence in this assay (Q06187 whole entry): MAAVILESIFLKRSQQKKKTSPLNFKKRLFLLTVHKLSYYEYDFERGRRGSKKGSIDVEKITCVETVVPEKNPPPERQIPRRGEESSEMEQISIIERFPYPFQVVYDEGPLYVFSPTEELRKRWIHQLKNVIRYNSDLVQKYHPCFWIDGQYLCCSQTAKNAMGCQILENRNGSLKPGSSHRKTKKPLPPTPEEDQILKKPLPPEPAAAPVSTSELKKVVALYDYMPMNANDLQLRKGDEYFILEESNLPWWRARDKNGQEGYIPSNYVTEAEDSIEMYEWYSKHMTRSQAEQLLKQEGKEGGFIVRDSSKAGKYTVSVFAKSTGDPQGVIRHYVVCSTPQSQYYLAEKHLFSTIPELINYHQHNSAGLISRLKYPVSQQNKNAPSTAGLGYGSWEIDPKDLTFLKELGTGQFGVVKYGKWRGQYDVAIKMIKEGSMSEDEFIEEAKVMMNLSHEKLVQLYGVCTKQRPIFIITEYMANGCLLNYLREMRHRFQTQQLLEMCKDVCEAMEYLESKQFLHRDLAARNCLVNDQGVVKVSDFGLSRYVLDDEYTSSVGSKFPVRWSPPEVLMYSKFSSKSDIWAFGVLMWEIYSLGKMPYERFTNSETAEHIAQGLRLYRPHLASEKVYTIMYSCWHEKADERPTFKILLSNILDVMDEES
Target sequence in this assay (Q96SW2 whole entry): as the sequence (Q96SW2 whole entry partner) above

[9] = Microsomal stability in human liver microsomes assessed as intrinsic clearance in liver measured up to 60 mins in presence of NADPH by LC-MS/MS analysis; assay type: ADME, Microsome; settings: read-out: CLH
[10] = Microsomal stability in human liver microsomes assessed as intrinsic clearance in microsomes measured up to 60 mins in presence of NADPH by LC-MS/MS analysis; assay type: ADME, Microsome; settings: read-out: CLH
[11] = Microsomal stability in human liver microsomes assessed as half life measured up to 60 mins in presence of NADPH by LC-MS/MS analysis; assay type: ADME, Microsome
[12] = Microsomal stability in human liver microsomes assessed as compound remaining measured up to 60 mins by LC-MS/MS analysis; assay type: ADME, Microsome; settings: read-out: Stability

Activity [1] [%] | Activity [2] [%] | Activity [3] [%] | Compound | other results
18 | 36 | 32 | O=C1CCC(N2Cc3cc(N4CCC(CCN5CCC(CC(=O)N[C@H]6CC[C@@H](Nc7ncnc8[nH]cc(C(=O)c9ccccc9Cl)c78)CC6)CC5)CC4)c(F)cc3C2=O)C(=O)N1 (stereo partly drawn) | 
41 | 54 | 46 | O=C1CCC(N2Cc3cc(N4CCC(CCN5CCC(CC(=O)N[C@@H]6CCC[C@H](Nc7ncnc8[nH]cc(C(=O)c9ccc(Oc%10ccccc%10)cc9Cl)c78)C6)CC5)CC4)c(F)cc3C2=O)C(=O)N1 (stereo partly drawn) | 
65 | 47 | 53 | O=C1CCC(N2Cc3cc(N4CCC(CCN5CCC(CC(=O)N6CCN(c7ncnc8[nH]cc(C(=O)c9ccc(Oc%10ccccc%10)cc9Cl)c78)CC6)CC5)CC4)c(F)cc3C2=O)C(=O)N1 (stereo not drawn) | 
80 | 98 | 98 | O=C1CCC(N2Cc3cc(N4CCC(CCN5CCC(CC(=O)N[C@H]6CC[C@H](Nc7ncnc8[nH]cc(C(=O)c9ccc(Oc%10ccccc%10)cc9Cl)c78)CC6)CC5)CC4)c(F)cc3C2=O)C(=O)N1 (stereo partly drawn) | 
83 | 89 | 92 | O=C1CCC(N2Cc3cc(N4CCC(CCN5CCC(CC(=O)N[C@H]6CC[C@@H](Nc7ncnc8[nH]cc(C(=O)c9ccc(Oc%10ccccc%10)cc9Cl)c78)CC6)CC5)CC4)c(F)cc3C2=O)C(=O)N1 (stereo partly drawn) | IC50 [4]: 23.9 nM; IC50 [5]: 27.4 nM
77 | 88 | 91 | O=C1CCC(N2Cc3cc(N4CCC(CCN5CCC(CC(=O)N[C@@H]6CC[C@H](Nc7ncnc8[nH]cc(C(=O)c9ccc(Oc%10ccccc%10)cc9Cl)c78)C6)CC5)CC4)c(F)cc3C2=O)C(=O)N1 (stereo partly drawn) | 
80 | 94 | 90 | O=C1CCC(N2Cc3cc(N4CCC(CCN5CCC(CC(=O)N6CCC(Nc7ncnc8[nH]cc(C(=O)c9ccc(Oc%10ccccc%10)cc9Cl)c78)CC6)CC5)CC4)c(F)cc3C2=O)C(=O)N1 (stereo not drawn) | 
87 | 96 | 95 | O=C1CCC(N2Cc3cc(N4CCC(CCN5CCC(CC(=O)N[C@H]6CC[C@@H](Nc7ncnc8[nH]cc(C(=O)c9ccc(Oc%10ccccc%10)cc9)c78)CC6)CC5)CC4)c(F)cc3C2=O)C(=O)N1 (stereo partly drawn) | 
56 | 88 | 76 | O=C1CCC(N2Cc3cc(N4CCC(CCN5CCC(CC(=O)NC6CCN(c7ncnc8[nH]cc(C(=O)c9ccc(Oc%10ccccc%10)cc9Cl)c78)CC6)CC5)CC4)c(F)cc3C2=O)C(=O)N1 (stereo not drawn) | 
79 | 89 | 85 | O=C1CCC(c2ccc(N3CCC(CCN4CCC(CC(=O)N[C@H]5CC[C@@H](Nc6ncnc7[nH]cc(C(=O)c8ccc(Oc9ccccc9)cc8Cl)c67)CC5)CC4)CC3)cc2)C(=O)N1 (stereo partly drawn) | 
11 | 23 | 7 | O=C1CCC(N2Cc3cc(N4CCC(CCN5CCC(CC(=O)N[C@H]6CC[C@@H](Nc7ncnc8[nH]cc(C(=O)c9ccc(F)cc9Cl)c78)CC6)CC5)CC4)c(F)cc3C2=O)C(=O)N1 (stereo partly drawn) | 
64 | 91 | 88 | O=C1CCC(n2ncc(N3CCC(CCN4CCC(CC(=O)N[C@H]5CC[C@@H](Nc6ncnc7[nH]cc(C(=O)c8ccc(Oc9ccccc9)cc8Cl)c67)CC5)CC4)CC3)c(Cl)c2=O)C(=O)N1 (stereo partly drawn) | 
88 | 98 | 94 | O=C1CCC(N2Cc3cc(N4CCC(CCN5CCC(CC(=O)N[C@H]6CC[C@H](Nc7ncnc8[nH]cc(C(=O)c9ccc(Oc%10ccccc%10)cc9Cl)c78)C6)CC5)CC4)c(F)cc3C2=O)C(=O)N1 (stereo partly drawn) | 
45 | 77 | 62 | O=C1CCC(c2cccc(N3CCC(CCN4CCC(CC(=O)N[C@H]5CC[C@@H](Nc6ncnc7[nH]cc(C(=O)c8ccc(Oc9ccccc9)cc8Cl)c67)CC5)CC4)CC3)c2)C(=O)N1 (stereo partly drawn) | 

Second part, the compound before the results:

Compound | Activity [1] [%] | Activity [2] [%] | Activity [3] [%] | other results
O=C(c1ccc(Oc2ccccc2)cc1Cl)c1c[nH]c2ncnc(N[C@@H]3CC[C@@H](CO)OC3)c12 [NEMTABRUTINIB] |  |  |  | IC50 [4]: 335 nM; IC50 [5]: 594 nM
O=C1CCC(c2ccc(N3CCC(CN4CCC(CC(=O)N[C@H]5CC[C@@H](Nc6ncnc7[nH]cc(C(=O)c8ccc(Oc9ccccc9)cc8)c67)CC5)CC4)C3)cc2)C(=O)N1 (stereo partly drawn) | 4 | 6 | 11 | 
O=C1CCC(c2ccc(N3CCC(CCN4CCC(CCN[C@H]5CC[C@@H](Nc6ncnc7[nH]cc(C(=O)c8ccc(Oc9ccccc9)cc8)c67)CC5)CC4)CC3)cc2)C(=O)N1 (stereo partly drawn) |  | 39 | 15 | 
O=C1CCC(c2ccc(N3CCC(CCN4CCC(CC(=O)N[C@H]5CC[C@@H](Nc6ncnc7[nH]cc(C(=O)c8ccc(Oc9ccccc9)cc8)c67)CC5)CC4)CC3)cc2)C(=O)N1 (stereo partly drawn) | 69 | 69 | 79 | 
CN1C(=O)CCC(c2ccc(N3CCC(CCN4CCC(CC(=O)N[C@H]5CC[C@H](Nc6ncnc7[nH]cc(C(=O)c8ccc(Oc9ccccc9)cc8)c67)C5)CC4)CC3)cc2)C1=O (stereo partly drawn) |  |  |  | Activity [6]: inactive
CN1C(=O)CCC(c2ccc(N3CCC(CCN4CCC(CC(=O)N[C@H]5CC[C@H](Nc6ncnc7[nH]cc(C(=O)c8ccc(Oc9ccccc9)cc8)c67)C5)CC4)CC3)nc2)C1=O (stereo partly drawn) |  |  |  | Activity [6]: inactive
O=C1CCC(c2ccc(N3CCC(CN4CCC(CC(=O)N[C@H]5CC[C@@H](Nc6ncnc7[nH]cc(C(=O)c8ccc(Oc9ccccc9)cc8)c67)CC5)CC4)CC3)cc2)C(=O)N1 (stereo partly drawn) | 50 | 74 | 51 | 
O=C1CCC(c2ccc(N3CC4(CCN(CC(=O)N[C@H]5CC[C@@H](Nc6ncnc7[nH]cc(C(=O)c8ccc(Oc9ccccc9)cc8)c67)CC5)CC4)C3)cc2)C(=O)N1 (stereo partly drawn) |  | 23 | 4 | 
O=C1CCN(c2ccc(C(=O)N3CCC(CCN4CCC(CC(=O)N[C@H]5CC[C@@H](Nc6ncnc7[nH]cc(C(=O)c8ccc(Oc9ccccc9)cc8Cl)c67)CC5)CC4)CC3)cc2)C(=O)N1 |  | 35 | 9 | 
O=C1CCC(c2ccc(N3CCC(CN4CCC(CC(=O)N[C@H]5CC[C@H](Nc6ncnc7[nH]cc(C(=O)c8ccc(Oc9ccccc9)cc8)c67)C5)CC4)CC3)nc2)C(=O)N1 (stereo partly drawn) | 84 | 93 | 91 | remaining at 1 h [7]: 53.9%; DC50 [8]: 3.1 nM; CLint scaled [9]: 18.2 mL/min/kg; microsomal CLint [10]: 20.3 µL/min/mg; half-life [11]: 1.13 h; remaining at 1 h [12]: 94.6%
O=C1CCN(c2cccc(C(=O)N3CCC(CCN4CCC(CC(=O)N[C@H]5CC[C@@H](Nc6ncnc7[nH]cc(C(=O)c8ccc(Oc9ccccc9)cc8Cl)c67)CC5)CC4)CC3)c2)C(=O)N1 |  | 24 |  | 
Cc1ccc(C(=O)N2CCC(CCN3CCC(CC(=O)N[C@H]4CC[C@@H](Nc5ncnc6[nH]cc(C(=O)c7ccc(Oc8ccccc8)cc7Cl)c56)CC4)CC3)CC2)cc1N1CCC(=O)NC1=O | 26 | 81 | 60 | 
O=C1CCC(NC(=O)c2ccc(N3CCC(CCN4CCC(CC(=O)N[C@H]5CC[C@@H](Nc6ncnc7[nH]cc(C(=O)c8ccc(Oc9ccccc9)cc8Cl)c67)CC5)CC4)CC3)cn2)C(=O)N1 (stereo partly drawn) | 4 | 73 | 54 | 
O=C1CCC(c2ccc(N3CCC(CN4CCC(CC(=O)N[C@H]5CC[C@H](Nc6ncnc7[nH]cc(C(=O)c8ccc(Oc9ccccc9)cc8)c67)C5)CC4)CC3)cc2)C(=O)N1 (stereo partly drawn) | 69 | 88 | 85 | remaining at 1 h [7]: 55.6%; DC50 [8]: 3.6 nM; CLint scaled [9]: 14.2 mL/min/kg; microsomal CLint [10]: 15.8 µL/min/mg; half-life [11]: 1.47 h; remaining at 1 h [12]: 96.8%
NC(=O)c1ncc(N2CCCCC2)nc1Nc1ccc(C2CCN(C[C@@H]3CCN(c4ccc5c(c4)C(=O)N(C4CCC(=O)NC4=O)C5=O)C3)CC2)cc1 (stereo partly drawn) |  |  |  | IC50 [4]: 8.8 nM; IC50 [5]: 18 nM
O=C1CCC(c2ccc(N3CCC(CCN4CCN(CC(=O)N[C@H]5CC[C@@H](Nc6ncnc7[nH]cc(C(=O)c8ccc(Oc9ccccc9)cc8)c67)CC5)CC4)CC3)cc2)C(=O)N1 (stereo partly drawn) | 15 | 53 | 36 | 
